Assay results: US11931424B2, “Combination MCL-1 inhibitors with anti-body drug conjugates” (Gilead Sciences, Inc., priority 2021, dated 2024)

Key:
Type in all cases: cell-based
[1] = test system: HCC1187 (TNBC); experiment: Compound A + SN-38 cell viability combination assay (Cell Titer Glo, Bliss synergy); details: HCC1187, 1st Replicate (n = 5), 72 hours; SN-38 0.0000 μM; Compound A μM = c0 of the row
From the text: (§1) Cells were passaged according to ATCC guidelines with 0.25% Trypsin/EDTA (1× GIBCO-25200).
(§2) Calculated values were compared to experimental results generated in the sixty-three-concentration checkerboard. Synergy or antagonism scores were generated depending on whether the observed growth inhibition was greater than or less than the calculated values, respectively.
(§3) Data for combination assays is presented in three formats.

[2] = test system: HCC1806; experiment: Compound A + paclitaxel cell viability combination assay (Cell Titer Glo, Bliss synergy); details: Homo sapiens, read-out: Percent Inhibition
Experimental: as §1
Viability assessments were performed using Cell Titer Glo™ (Promega #G9241) according to manufactures microwell plate protocol and read for luminescence on Synergy Neo2 plate reader.
For synergy matrix assays, TNBC cell lines were seeded 10,000 cells per well in clear-bottomed white 96-well plates (Corning #3909) in 100 μL of recommended cell culture medium. Plates were incubated at 37° C. and 100% RH for 20 hours prior to compound exposure.
Cells were then exposed to compound A with the same checkerboard matrix using D300 dispenser and incubated for 48 hours prior to measurement of viability by Cell Titer Glo.
as §2
These differences were summed up across the whole checker-board (sixty-three wells) to give cumulative synergy and antagonism scores with units of μM^2% to reflect the 2D surface of the dose responses.
as §3

[3] = test system: panel of breast cancer cell lines; experiment: Compound A with targeted agents and chemotherapies, 72-hour in vitro proliferation assays
[4] = test system: panel of haematalogical cancer cell lines; experiment: Compound A with BTK inhibitors, 72-hour in vitro proliferation assays; details: combination Compound A × listed BTK inhibitor, 72-hour proliferation

Structure (SMILES): COc1nn(C)cc1C(=O)N[S@@]1(=O)=NC(=O)c2ccc3c(c2)N(C[C@@H]2CC[C@H]2[C@@H](OC)/C=C/C[C@H](C)C1)C[C@@]1(CCCc2cc(Cl)ccc21)CO3 [Compound A, N-[(4S,7aR,9aR,10S,11E,14S)-6′-chloro-10-methoxy-14-methyl-16-oxido-18-oxo-3′,4′,7,7a,8,9,9a,10,13,14,15,18-dodecahydro-2′H-spiro[1,19-(ethanediylidene)-16λ^4-cyclobuta[i][1,4]oxazepino[3,4-f][1,2,7]thiadiazacyclohexadecine-4,1′-naphthalen]-16-yl]-3-methoxy-1-methyl-1H-pyrazole-4-carboxamide]
- Percent Inhibition [1]: 99.2%

Structure (SMILES): CC(=O)O[C@H]1C(=O)[C@@]2(C)[C@H]([C@H](OC(=O)c3ccccc3)[C@]3(O)C[C@H](OC(=O)[C@H](O)[C@@H](NC(=O)c4ccccc4)c4ccccc4)C(C)=C1C3(C)C)[C@]1(OC(C)=O)CO[C@@H]1C[C@@H]2O [Paclitaxel, reference compound]
- inhibition at 0.0005 µM [2]: 2.3%
- inhibition at 1 µM [2]: 64.8%
- inhibition at 3 µM [2]: 69.9%
- Best CI ([3]; 72 h): 0.32
- Best CI ([3]; AU565 cell line, compound A × partner, 72-hour proliferation): 0.19
- Best CI ([3]; BT-20 cell line, compound A × partner, 72-hour proliferation): 0.05
- Best CI ([3]; BT-474 cell line, compound A × partner, 72-hour proliferation): 0.16
- Best CI ([3]; BT-549 cell line, compound A × partner, 72-hour proliferation): 0.27
- Best CI ([3]; CAL-51 cell line, compound A × partner, 72-hour proliferation): 0.50
- Best CI ([3]; CAL-85-1 cell line, compound A × partner, 72-hour proliferation): 0.23
- Best CI ([3]; CAL-148 cell line, compound A × partner, 72-hour proliferation): 0.25
- Best CI ([3]; CAMA-1 cell line, compound A × partner, 72-hour proliferation): 0.05
- Best CI ([3]; DU-4475 cell line, compound A × partner, 72-hour proliferation): 0.57
- Best CI ([3]; EVSA-T cell line, compound A × partner, 72-hour proliferation): 0.26
- Best CI ([3]; HCC38, compound A × partner, 72-hour proliferation): 0.21
- Best CI ([3]; HCC70, compound A × partner, 72-hour proliferation): 0.14
- Best CI ([3]; HCC1143, compound A × partner, 72-hour proliferation): 0.35
- Best CI ([3]; HCC1569, compound A × partner, 72-hour proliferation): 0.41
- Best CI ([3]; HCC1806, compound A × partner, 72-hour proliferation): 0.10
- Best CI ([3]; HCC1937, compound A × partner, 72-hour proliferation): 0.18
- Best CI ([3]; HCC1954, compound A × partner, 72-hour proliferation): 0.05
- Best CI ([3]; HCC2218, compound A × partner, 72-hour proliferation): 0.55
- Best CI ([3]; HDQ-P1, compound A × partner, 72-hour proliferation): 0.82
- Best CI ([3]; HMC-1-8, compound A × partner, 72-hour proliferation): 0.11
- Best CI ([3]; JIMT-1, compound A × partner, 72-hour proliferation): 0.50
- Best CI ([3]; MCF7 cells, Compound A × partner agent, 72-hour proliferation): 0.32
- Best CI ([3]; MDA-MB-175-VII cells, Compound A × partner agent, 72-hour proliferation): 0.13
- Best CI ([3]; MDA-MB-231 cells, Compound A × partner agent, 72-hour proliferation): 0.33
- Best CI ([3]; MDA-MB-361 cells, Compound A × partner agent, 72-hour proliferation): 0.50
- Best CI ([3]; MDA-MB-436 cells, Compound A × partner agent, 72-hour proliferation): 0.68
- Best CI ([3]; MDA-MB-453 cells, Compound A × partner agent, 72-hour proliferation): 0.07
- Best CI ([3]; MDA-MB-468 cells, Compound A × partner agent, 72-hour proliferation): 0.27
- Best CI ([3]; SK-BR-3 cells, combination of compound A with the named agent, 72-hour proliferation): 0.70
- Best CI ([3]; SUM159PT cells, combination of compound A with the named agent, 72-hour proliferation): 0.06
- Best CI ([3]; T47D cells, combination of compound A with the named agent, 72-hour proliferation): 0.08
- Best CI ([3]; ZR-75-1 cells, combination of compound A with the named agent, 72-hour proliferation): 0.07
- Best CI ([3]; ZR-75-30 cells, combination of compound A with the named agent, 72-hour proliferation): 0.41

Structure (SMILES): C=CC(=O)N1CCC([C@@H]2CCNc3c(C(N)=O)c(-c4ccc(Oc5ccccc5)cc4)nn32)CC1 [Zanubrutinib]
- Best CI ([4]; HBL-1 cells): 0.05
- Best CI Level ([4]; HBL-1 cells): 55
- Bliss Volume ([4]; HBL-1 cells): 5.13
- HSA volume ([4]; HBL-1 cells): 10.34
- Loewe Volume ([4]; HBL-1 cells): 9.75
- Synergy Score ([4]; HBL-1 cells): 8.18
- Best CI ([4]; OCI-Ly10 cells): 0.50
- Best CI Level ([4]; OCI-Ly10 cells): 80
- Bliss Volume ([4]; OCI-Ly10 cells): 1.36
- HSA volume ([4]; OCI-Ly10 cells): 3.82
- Loewe Volume ([4]; OCI-Ly10 cells): 3.55
- Synergy Score ([4]; OCI-Ly10 cells): 4.04
- Best CI ([4]; SU-DHL-2 cells): 0.86
- Best CI Level ([4]; SU-DHL-2 cells): 40
- Bliss Volume ([4]; SU-DHL-2 cells): 1.42
- HSA volume ([4]; SU-DHL-2 cells): 0.63
- Loewe Volume ([4]; SU-DHL-2 cells): 1.23
- Synergy Score ([4]; SU-DHL-2 cells): 0.72
- Best CI ([4]; SU-DHL-4 cells): 1.06
- Best CI Level ([4]; SU-DHL-4 cells): 20
- Bliss Volume ([4]; SU-DHL-4 cells): 0.06
- HSA volume ([4]; SU-DHL-4 cells): −4.15
- Loewe Volume ([4]; SU-DHL-4 cells): −4.24
- Synergy Score ([4]; SU-DHL-4 cells): 0.76
- Best CI ([4]; SU-DHL-8 cells): 0.52
- Best CI Level ([4]; SU-DHL-8 cells): 30
- Bliss Volume ([4]; SU-DHL-8 cells): −5.98
- HSA volume ([4]; SU-DHL-8 cells): −5.32
- Loewe Volume ([4]; SU-DHL-8 cells): −5.81
- Synergy Score ([4]; SU-DHL-8 cells): 0.66
- Best CI ([4]; TMD8 cells): 0.07
- Best CI Level ([4]; TMD8 cells): 80
- Bliss Volume ([4]; TMD8 cells): 2.31
- HSA volume ([4]; TMD8 cells): 4.24
- Loewe Volume ([4]; TMD8 cells): 3.33
- Synergy Score ([4]; TMD8 cells): 3.91
- Best CI ([4]; U-2932 cells): 0.54
- Best CI Level ([4]; U-2932 cells): 65
- Bliss Volume ([4]; U-2932 cells): 5.21
- HSA volume ([4]; U-2932 cells): 7.71
- Loewe Volume ([4]; U-2932 cells): 7.67
- Synergy Score ([4]; U-2932 cells): 4.92
